The text below walks through data of patent publication US9850251B2, “Imidazole derivative used as antiviral agent and use therof in preparation of medicament” (priority 2013, dated 2017).

Series [1] relates to RSV respiratory tract virus (A long strain). Kind of series: RSV long CPE assay (cytopathic effect assay), EC50. The series is classed as cell-based. Particulars: human respiratory syncytial virus, HEp-2, 120 h; Hep2 cells infected with RSV A long strain, 5 days, CCK-8 readout. As to the method: (§1) Detect EC50 and CC50 values of anti RSV respiratory tract virus compounds through the cytopathic effect assay.
Virus strain: RSV respiratory tract virus (A long strain)
(§2) The cell plate was centrifugated (300 rpm) to make the cells adherent to the wall, placed into a 37° C., 5% CO2 incubator overnight.
(§3) 1) the compound in 100% DMSO underwent a semi logarithmic dilution, then was added to the cell plate with a Echo liquid handler. Ensure that the final concentration of DMSO was 1%;
(§4) 2) Cell-control hole: no compound and viruse were added; virus-control hole: no compound was added.
dilute RSV viruses to 100 TCID50/30 μL with medium cultured with 4° C. cells, and then add the diluted viruses to a cell plate (30 μL/hole) with Multidrop® automatic liquid distributor, and then placed into a 37° C., 5% CO2 culture incubator for 5 days.
1) after 5 days, observe the pathological change in each hole.
(§5) 2) add CCK-8 (Dojindo-CK04-20, 6 μL/hole) to 384 well plate with Multidrop® automatic liquid distributor;
(§6) 3) place the plate at a 37° C., 5% CO2 culture incubator for 3˜4 h, read the absorbance value with SPECTRA max 340PC_Molecular device at 450 nm and 630 nm;

The nature of series [2]: RSV long CPE assay (cytopathic effect assay), CC50 toxicity in vitro. Format: cell-based. As to conditions: human, Hep2 cells, CCK-8 readout, top concentration 100 μM. The procedure: as §1, §2, §3, §4, §5, §6

The structures appear in SMILES notation. Some results are limits rather than exact numbers.

Consider `CC(C)OC(=O)N1CC2(C1)C(=O)N(Cc1nc3c(n1CCCCO)CCCC3)c1ccccc12` [Embodiment 62, Isopropyl 1′-((1-(4-hydroxybutyl)-4,5,6,7-tetrahydro-1H-benzo[d]imidazol-2-yl)methyl)-2′-oxospiro[azetidine-3,3′-indoline]-1-carboxylate], for which the concentration for a half-maximal effect (EC50) in series [1] was < 100 nM. Besides, in series [2], the half-maximal cytotoxic concentration (CC50) at 5 days is > 100000 nM.
For `O=C1N(Cc2nc3c(n2CCCCO)CCCC3)c2ccccc2C12CC2` [Embodiment 63, 1′-((1-(4-Hydroxybutyl)-4,5,6,7-tetrahydro-1H-benzo[d]imidazol-2-yl)methyl)spiro[cyclopropane-1,3′-indoline]-2′-one], in that order: < 100 nM and > 100000 nM.
For `CC(C)OC(=O)N1CC2(C1)C(=O)N(Cc1nc3c(n1CCCC(F)F)CCCC3)c1ccccc12` [Embodiment 64, Isopropyl 1′-((1-(4,4-difluorobutyl)-4,5,6,7-tetrahydro-1H-benzo[d]imidazol-2-yl)methyl)-2′-oxospiro[azetidine-3,3′-indoline]-1-carboxylate], in that order: < 100 nM and > 100000 nM.
For `CC(C)OC(=O)N1CC2(C1)C(=O)N(Cc1nc3c(n1CCCC(F)(F)F)CCCC3)c1ccccc12` [Embodiment 65, Isopropyl 2′-oxo-1′-((1-(4,4,4-trifluorobutyl)-4,5,6,7-tetrahydro-1H-benzo[d]imidazol-2-yl)methyl)spiro[azetidine-3,3′-indoline]-1-carboxylate], in that order: < 100 nM and > 100000 nM.
As for `CC(C)OC(=O)N1CC2(C1)C(=O)N(Cc1nc3c(n1CC(F)(F)CCF)CCCC3)c1ccccc12` [Embodiment 66, Isopropyl 2′-oxo-1′-((1-(2,2,4-trifluorobutyl)-4,5,6,7-tetrahydro-1H-benzo[d]imidazol-2-yl)methyl)spiro[azetidine-3,3′-indoline]-1-carboxylate], the EC50 in series [1] was < 100 nM. Besides, the half-maximal cytotoxic concentration (CC50) at 5 days in series [2] was > 100000 nM.
For the compound `CCC(F)(F)Cn1c(CN2C(=O)C3(CN(C(=O)OC(C)C)C3)c3ccccc32)nc2c1CCCC2` [Embodiment 67, Isopropyl 1′-((1-(2,2-difluorobutyl)-4,5,6,7-tetrahydro-1H-benzo[d]imidazol-2-yl)methyl)-2′-oxospiro[azetidine-3,3′-indoline]-1-carboxylate], the EC50 in series [1] is 100 to 1000 nM. In addition, in series [2], the CC50 at 5 days is > 100000 nM.
The like results for `CC(C)OC(=O)N1CC2(C1)C(=O)N(Cc1nc3c(n1CC(=O)C(C)C)CCCC3)c1ccccc12` [Embodiment 68, Isopropyl 1′-((1-(3-methyl-2-oxobutyl)-4,5,6,7-tetrahydro-1H-benzo[d]imidazol-2-yl)methyl)-2′-oxospiro[azetidine-3,3′-indoline]-1-carboxylate] were, in that order, 100 to 1000 nM and > 100000 nM.
For `CC(C)OC(=O)N1CC2(C1)C(=O)N(Cc1nc3c(n1CC(F)(F)C(C)C)CCCC3)c1ccccc12` [Embodiment 69, Isopropyl 1′-((1-(2,2-difluoro-3-methylbutyl)-4,5,6,7-tetrahydro-1H-benzo[d]imidazol-2-yl)methyl)-2′-oxospiro[azetidine-3,3′-indoline]-1-carboxylate], in that order: < 100 nM and > 100000 nM.
The like results for `CC(C)OC(=O)N1CC2(C1)C(=O)N(Cc1nc3c(n1/C=C(\F)C(C)C)CCCC3)c1ccccc12` [Embodiment 70, Isopropyl (Z)-1′-((1-(2-fluoro-3-methylbut-1-en-1-yl)-4,5,6,7-tetrahydro-1H-benzo[d]imidazol-2-yl)methyl)-2′-oxospiro[azetidine-3,3′-indoline]-1-carboxylate] were, in that order, < 100 nM and > 100000 nM.
In series [1], `CC(C)=C(F)Cn1c(CN2C(=O)C3(CN(C(=O)OC(C)C)C3)c3ccccc32)nc2c1CCCC2` [Embodiment 71, Isopropyl 1′-((1-(2-fluoro-3-methylbut-2-en-1-yl)-4,5,6,7-tetrahydro-1H-benzo[d]imidazol-2-yl)methyl)-2′-oxospiro[azetidine-3,3′-indoline]-1-carboxylate] registered a 50% effective concentration (EC50) of 100 to 1000 nM. For the same compound, the CC50 at 5 days in series [2] was > 100000 nM.
Turning to `CCOC(=O)N1CC2(C1)C(=O)N(Cc1nc3c(n1CCC(C)C)CCCC3)c1ccccc12` [Embodiment 72, Ethyl 1′-((1-isopentyl-4,5,6,7-tetrahydro-1H-benzo[d]imidazol-2-yl)methyl)-2′-oxospiro[azetidine-3,3′-indoline]-1-carboxylate], the 50% effective concentration (EC50) in series [1] is < 100 nM. The CC50 at 5 days in series [2] is > 100000 nM.
Take `CCOC(=O)N1CC2(C1)C(=O)N(Cc1nc3c(n1CCCCF)CCCC3)c1ccccc12` [Embodiment 73]: the half-maximal effective concentration (EC50) in series [1] is < 100 nM. For the same compound, in series [2], the half-maximal cytotoxic concentration (CC50) at 5 days is > 100000 nM.
With `CCOC(=O)N1CC2(C1)C(=O)N(Cc1nc3c(n1CCCC#N)CCCC3)c1ccccc12` [Embodiment 74, Ethyl 1′-((1-(3-cyanopropyl)-4,5,6,7-tetrahydro-1H-benzo[d]imidazol-2-yl)methyl)-2′-oxospiro[azetidine-3,3′-indoline]-1-carboxylate], the 50% effective concentration (EC50) in series [1] is < 100 nM. In series [2], the CC50 at 5 days is > 100000 nM.
As for `CCOC(=O)N1CC2(C1)C(=O)N(Cc1nc3c(n1CCCC(F)(F)F)CCCC3)c1ccccc12` [Embodiment 75, Ethyl 2′-oxo-1′-((1-(4,4,4-trifluorobutyl)-4,5,6,7-tetrahydro-1H-benzo[d]imidazol-2-yl)methyl)spiro[azetidine-3,3′-indoline]-1-carboxylate], the half-maximal effective concentration (EC50) in series [1] was < 100 nM. Also, the cytotoxic concentration (CC50) at 5 days in series [2] is > 100000 nM.
As to `CCOC(=O)N1CC2(C1)C(=O)N(Cc1nc3c(n1CCCS(C)(=O)=O)CCCC3)c1ccccc12` [Embodiment 76, Ethyl 1′-((1-(3-(methylsulfonyl)propyl)-4,5,6,7-tetrahydro-1H-benzo[d]imidazol-2-yl)methyl)-2′-oxospiro[azetidine-3,3′-indoline]-1-carboxylate], the half-maximal effective concentration (EC50) in series [1] was < 100 nM. Also, in series [2], the CC50 at 5 days was > 100000 nM.
For `CC(C)OC(=O)N1CC2(C1)C(=O)N(Cc1nc3c(n1CCCCO)CCCC3)c1ccc(Br)cc12` [Embodiment 78, Isopropyl 5′-bromo-1′-((1-(4-hydroxybutyl)-4,5,6,7-tetrahydro-1H-benzo[d]imidazol-2-yl)methyl)-2′-oxospiro[azetidine-3,3′-indoline]-1-carboxylate], in that order: < 100 nM and > 100000 nM.
Take `CC(C)OC(=O)N1CC2(C1)C(=O)N(Cc1nc3c(n1CCCC(F)(F)F)CCCC3)c1ccc(Br)cc12` [Embodiment 79, Isopropyl 5′-bromo-2′-oxo-1′-((1-(4,4,4-trifluorobutyl)-4,5,6,7-tetrahydro-1H-benzo[d]imidazol-2-yl)methyl)spiro[azetidine-3,3′-indoline]-1-carboxylate]: the EC50 in series [1] was < 100 nM. Moreover, the 50% cytotoxic concentration (CC50) at 5 days in series [2] is > 100000 nM.
As for `CCOC(=O)N1CC2(C1)C(=O)N(Cc1nc(CC)c(CC)n1CCCCO)c1ccccc12` [Embodiment 101, Ethyl 1′-((4,5-diethyl-1-(4-hydroxybutyl)-1H-imidazol-2-yl)methyl)-2′-oxospiro[azetidine-3,3′-indoline]-1-carboxylate], in series [2], the CC50 at 5 days is > 100000 nM.
